Test results: patent US8552000B2, “Therapeutic agent for senile dementia” (Dainippon Sumitomo Pharma Co., Ltd., priority 2003, dated 2013)

Tested on: scopolamine-induced cognitive/memory dysfunction models
Experiment: one step-through passive avoidance test, scopolamine-induced amnesia
Format: in vivo, Male Wistar rats
Experimental: Male Wistar rats (7 weeks old) were used. As a test medicament, (1R,2S,3R,4S)—N-|(1R,2R)-2-[4-(1,2-benzisothiazol-3-yl)-1-piperazinyl-methyl]-1-cyclohexylmethyl]-2,3-bicycl[2.2.1]heptanedicarboxylmide (Compound A) was suspended in 0.5% methyl cellulose (MC) solution. As an agent for inducing amnesia, scopolamine (manufactured by Wako Pure Chemical Industries, Ltd., product No. 198-07901), which is an acethylcoline receptor blocker, was dissolved in saline solution (manufactured by TERUMO CORPORATION). Compound A at a dose of 3 mg/kg or 30 mg/kg, or 0.5% MC as a control was orally administered to the animals one hour prior to the training step in the one step-through passive avoidance test, and then, scopolamine at a dose of 0.5 mg/kg or a saline solution as a control was subcutaneously administered to the animals 30 minutes prior to the training step. The volume of each solution to be administered was 5 ml/kg each.
The one step-through passive avoidance test in rats was carried out in the following manners with using an apparatus consisting of a light-dark box and an electric stimulator (manufactured by O'hara & Co., Ltd., product no. PA-2030A) as an experimental apparatus. Namely, on Day 1, after the medicament and the agent for inducing amnesia were administered, the rats were put into the light box of the experimental apparatus where the back of each rat was directed to the dark box. Then, 10 seconds later, a guillotine door set at the border between the dark box and the light box was opened. Due to the habits of the rats, once the rats entered into the dark box, the guillotine door was quickly closed. At three seconds after the entering into the dark box, an electroconvulsive shock (0.5 mA, for 3 seconds) was given to the rats. Again, the guillotine door was opened, and after the rats spontaneously returned to the light box, the animals were transferred into the home cage. The period between the time just after the guillotine door was opened and the time at which the rats entered into the dark box was measured as a step-through latency.
On Day 2 of the experiment, a test was carried out about 24 hours after the training. The procedures of the test were carried out in the same manner to the training step except that an electroconvulsive shock was not given. The step-through latency in the test was measured up to 300 seconds, and the step-through latency over 300 seconds was regarded as 300 seconds. FIG. 1 and FIG. 2 show the effects of Compound A on the scopolamine-induced cognitive/memory dysfunction models in the one step-through passive avoidance test when it was orally administered at a dosage of 3 mg/kg or 30 mg/kg. […] The number of the animals was 15 per group, and the data was expressed in mean±SEM.

`CN1[C@@H]2C[C@@H](OC(=O)[C@H](CO)c3ccccc3)C[C@H]1[C@@H]1O[C@@H]12` [scopolamine, reference compound] was tested. Which “step-through latency during the training” value (scopolamine 0.5 mg/kg s.c. alone (with 0.5% MC), vs saline solution) did it give?
The value was “did not affect”.

What about the “step-through latency during the test” value (scopolamine 0.5 mg/kg s.c. alone (with 0.5% MC), vs saline solution, about 24 hours after training) of the same compound?
The value was “significantly shorter”.

Which results are given for `O=C1[C@@H]2[C@@H]3CC[C@@H](C3)[C@@H]2C(=O)N1C[C@@H]1CCCC[C@H]1CN1CCN(c2nsc3ccccc23)CC1` [Compound A]?
step-through latency during the training (Compound A 3 mg/kg orally one hour prior to training, scopolamine 0.5 mg/kg s.c. 30 minutes prior, vs 0.5% MC+scopolamine): slightly shortened; step-through latency during the test (Compound A 30 mg/kg orally plus scopolamine 0.5 mg/kg s.c., test about 24 hours after training, vs 0.5% MC+scopolamine): significantly extended; improving effect of scopolamine-induced cognitive/memory dysfunctions (overall finding of the passive avoidance test in rats, oral administration): exhibited an improving effect
